Assay results published in ChEMBL document CHEMBL3132761, “Construction of phenoxazine rings containing nitro and sulfonic acid groups leading to phenoxazine-3-sulfonamide derivatives: their evaluation as novel and potential insulin secretagogues” (Medchemcomm, 2014).
The source made the active and inactive calls. The calls are words filed in the database; no cut-off is given here.

Key:
[1] = system: Rattus norvegicus; test: Hypoglycemic activity in 18 hrs fasted Wistar albino rat assessed as reduction of blood glucose level at 10 mg/kg, po after 6 hrs (reference value: 101.01 +/- 1.60 mg/dl); format: functional
[2] = system: Rattus norvegicus; test: Hypoglycemic activity in 18 hrs fasted Wistar albino rat assessed as reduction of blood glucose level at 10 mg/kg, po after 2 hrs (reference value: 101.03 +/- 1.93 mg/dl); format: functional
[3] = system: Rattus norvegicus; test: Hypoglycemic activity in 18 hrs fasted Wistar albino rat assessed as reduction of blood glucose level at 10 mg/kg, po after 4 hrs (reference value: 97.13 +/- 2.89 mg/dl); format: functional
[4] = system: Rattus norvegicus; test: Hypoglycemic activity in over night fasted Wistar albino rat assessed as reduction of blood glucose level at 10 mg/kg, po administered 30 mins before glucose challenge measured after 60 mins by intraperitoneal glucose tolerance test (reference value: 106.07 +/- 13.98 mg/dl); format: functional
[5] = system: Rattus norvegicus; test: Hypoglycemic activity in over night fasted Wistar albino rat assessed as reduction of blood glucose level at 10 mg/kg, po administered 30 mins before glucose challenge measured after 30 mins by intraperitoneal glucose tolerance test (reference value: 109.28 +/- 20.53 mg/dl); format: functional
[6] = system: Rattus norvegicus; test: Hypoglycemic activity in over night fasted Wistar albino rat assessed as reduction of blood glucose level at 10 mg/kg, po administered 30 mins before glucose challenge measured after 90 mins by intraperitoneal glucose tolerance test (reference value: 94.44 +/- 6.99 mg/dl); format: functional
[7] = system: Rattus norvegicus; test: Hypoglycemic activity in over night fasted Wistar albino rat assessed as reduction of blood glucose level at 10 mg/kg, po administered 30 mins before glucose challenge measured after 120 mins by intraperitoneal glucose tolerance test (reference value: 101.07 +/- 8.98 mg/dl); format: functional
[8] = system: Hepatocyte; test: Cytotoxicity against rat primary hepatocytes after 16 hrs; format: cell-based
[9] = system: Hepatocyte; test: Cytotoxicity against rat primary hepatocytes after 6 hrs; format: cell-based
[10] = system: Rattus norvegicus; test: Antidiabetic activity in streptozotocin-nicotinamide-induced diabetic model of Wistar albino rat assessed as reduction of blood glucose level at 10 mg/kg, po after 4 hrs relative to control; format: functional
[11] = system: Rattus norvegicus; test: Antidiabetic activity in Wistar albino rat assessed as reversal of diabetic-induced SGPT level in liver at 10 mg/kg, po administered for 14 days measured on day 14 relative to control; format: functional
[12] = system: Rattus norvegicus; test: Hypolipidemic activity in Wistar albino rat assessed as reduction of total cholesterol level at 10 mg/kg, po administered for 14 days measured on day 14 after 1 to 8 hrs relative to control; format: functional
[13] = system: Rattus norvegicus; test: Antidiabetic activity in streptozotocin-nicotinamide-induced diabetic model of Wistar albino rat assessed as granulated pancreatic islets with prominent hyperplasticity at 10 mg/kg, po administered for 14 days measured on day 14 relative to control; format: functional, organism-based; parameters: dose 10 mg/kg
[14] = system: Rattus norvegicus; test: Antidiabetic activity in streptozotocin-nicotinamide-induced diabetic model of Wistar albino rat assessed as reduction of blood glucose level at 10 mg/kg, po administered for 14 days measured on day 7 after 1 to 8 hrs relative to control; format: functional
[15] = system: Rattus norvegicus; test: Antidiabetic activity in Wistar albino rat assessed as reversal of diabetic-induced muscle wasting by measuring increase in body weight at 10 mg/kg, po administered for 14 days measured on day 14 relative to control; format: functional
[16] = system: Rattus norvegicus; test: Antidiabetic activity in streptozotocin-nicotinamide-induced diabetic model of Wistar albino rat assessed as reduction of blood glucose level at 10 mg/kg, po after 2 hrs relative to control; format: functional
[17] = system: Rattus norvegicus; test: Antidiabetic activity in streptozotocin-nicotinamide-induced diabetic model of Wistar albino rat assessed as reduction of blood glucose level at 10 mg/kg, po after 1 hr relative to control; format: functional
[18] = system: Rattus norvegicus; test: Antidiabetic activity in streptozotocin-nicotinamide-induced diabetic model of Wistar albino rat assessed as reduction of blood glucose level at 10 mg/kg, po after 8 hrs relative to control; format: functional
[19] = system: Rattus norvegicus; test: Antidiabetic activity in streptozotocin-nicotinamide-induced diabetic model of Wistar albino rat assessed as reduction of blood glucose level at 10 mg/kg, po administered for 14 days measured on day 14 after 1 to 8 hrs relative to control; format: functional
[20] = system: Rattus norvegicus; test: Hypolipidemic activity in Wistar albino rat assessed as reduction of serum triglyceride level at 10 mg/kg, po administered for 14 days measured on day 14 after 1 to 8 hrs relative to control; format: functional
[21] = system: Rattus norvegicus; test: Antidiabetic activity in Wistar albino rat assessed as reversal of diabetic-induced SGOT level in liver at 10 mg/kg, po administered for 14 days measured on day 14 relative to control; format: functional
[22] = system: Rattus norvegicus; test: Antidiabetic activity in streptozotocin-nicotinamide-induced diabetic model of Wistar albino rat assessed as reduction of blood glucose level at 10 mg/kg, po after 6 hrs relative to control; format: functional
[23] = molecular target: T1, Peroxisome proliferator-activated receptor gamma (Homo sapiens) (UniProt P37231); test: Agonist activity at human GAL4-fused PPARgamma LBD expressed in HEK293T cells co-expressing DBD at 1 uM by luciferase based transactivation assay relative to control; format: cell-based; settings: HEK-293T
T1 sequence (whole entry): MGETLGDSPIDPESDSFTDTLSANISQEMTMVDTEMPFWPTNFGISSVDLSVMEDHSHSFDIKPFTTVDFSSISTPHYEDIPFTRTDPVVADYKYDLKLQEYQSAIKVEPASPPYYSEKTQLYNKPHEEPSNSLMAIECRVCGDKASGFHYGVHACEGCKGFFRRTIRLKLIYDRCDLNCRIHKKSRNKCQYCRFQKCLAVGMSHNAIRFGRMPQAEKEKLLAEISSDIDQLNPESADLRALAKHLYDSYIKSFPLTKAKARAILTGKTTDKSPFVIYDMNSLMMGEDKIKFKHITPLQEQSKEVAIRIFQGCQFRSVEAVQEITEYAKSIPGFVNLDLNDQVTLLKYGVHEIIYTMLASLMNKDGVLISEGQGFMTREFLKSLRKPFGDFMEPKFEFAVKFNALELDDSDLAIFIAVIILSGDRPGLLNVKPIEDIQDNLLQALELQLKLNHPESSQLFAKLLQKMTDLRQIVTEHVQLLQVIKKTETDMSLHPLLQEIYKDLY

SMILES | Activity [1] [mg/dL] | Activity [2] [mg/dL] | Activity [3] [mg/dL] | Activity [4] [mg/dL] | Activity [5] [mg/dL] | Activity [6] [mg/dL] | Activity [7] [mg/dL] | further results
O=[N+]([O-])c1cc(S(=O)(=O)N2CCCCC2)cc2c1Nc1ccccc1O2 | 78.41 | 72.67 | 69.35 | – | – | – | – | –
NS(=O)(=O)c1cc2c(c([N+](=O)[O-])c1)Nc1ccccc1O2 | 51.04 | 65.62 | 69.79 | 112.31 | 124.2 | 105.72 | 122.85 | –
CCCNS(=O)(=O)c1cc2c(c([N+](=O)[O-])c1)Nc1ccccc1O2 | 98.7 | 75.48 | 88.7 | – | – | – | – | –
O=[N+]([O-])c1cc(S(=O)(=O)NC2CCCCC2)cc2c1Nc1ccccc1O2 | 90.2 | 90.22 | 85.63 | – | – | – | – | –
CN(CCOc1ccc(CC2SC(=O)NC2=O)cc1)c1ccccn1 (stereo not drawn) [ROSIGLITAZONE] | – | – | – | – | – | – | – | IC50 [8]: 165 µM; IC50 [9]: 225 µM
O=[N+]([O-])c1cc(S(=O)(=O)N2CCOCC2)cc2c1Nc1ccccc1O2 | 65.27 | 59.35 | 61.56 | – | – | – | – | –
Cc1ccccc1NS(=O)(=O)c1cc2c(c([N+](=O)[O-])c1)Nc1ccccc1O2 | 87.93 | 52.43 | 73.33 | 100.44 | 123.21 | 97.32 | 100 | –
CC(C)c1ccc(NS(=O)(=O)c2cc3c(c([N+](=O)[O-])c2)Nc2ccccc2O3)cc1 | 91.74 | 74.28 | 86.45 | 96.66 | 124.33 | 98 | 106 | –
COc1ccc(Cl)cc1C(=O)NCCc1ccc(S(=O)(=O)NC(=O)NC2CCCCC2)cc1 [GLYBURIDE] | 69.01 | 90.2 | 63.73 | 89 | 107.85 | 77.5 | 91.78 | Activity [10]: 107.5 mg/dL; Activity [11]: 42 U/dl; Activity [12]: 57.8 mg/dL; Activity [13]: Active; Activity [14]: 93.3 mg/dL; Activity [15]: 244 g; Activity [16]: 101.9 mg/dL; Activity [17]: 147.2 mg/dL; Activity [18]: 151.9 mg/dL; Activity [19]: 88.3 mg/dL; Activity [20]: 61 mg/dL; Activity [21]: 45.8 U/dl; Activity [22]: 127.2 mg/dL
COc1ccc(CNS(=O)(=O)c2cc3c(c([N+](=O)[O-])c2)Nc2ccccc2O3)cc1 | 85.93 | 102.6 | 102.08 | – | – | – | – | –
CCN(CC)S(=O)(=O)c1cc2c(c([N+](=O)[O-])c1)Nc1ccccc1O2 | 118.75 | 122.92 | 113.54 | – | – | – | – | –
O=[N+]([O-])c1cc(S(=O)(=O)Nc2cccc(F)c2)cc2c1Nc1ccccc1O2 | 93.94 | 95.45 | 87.88 | – | – | – | – | –
O=[N+]([O-])c1cc(S(=O)(=O)NCc2ccco2)cc2c1Nc1ccccc1O2 | 100.76 | 96.21 | 86.36 | 81.89 | 115.43 | 80 | 83.89 | –
O=[N+]([O-])c1cc(S(=O)(=O)Nc2ccccc2O)cc2c1Nc1ccccc1O2 | 88.88 | 71.38 | 85 | – | – | – | – | –
O=[N+]([O-])c1cc(S(=O)(=O)Nc2ccc(O)cc2)cc2c1Nc1ccccc1O2 | 66.14 | 46.34 | 44.65 | 95.4 | 102.43 | 78.1 | 98.91 | Activity [10]: 131.4 mg/dL; Activity [11]: 44.8 U/dl; Activity [12]: 59.2 mg/dL; Activity [13]: Active; Activity [14]: 165.8 mg/dL; IC50 [8]: 274 µM; Activity [15]: 242 g; IC50 [9]: 343 µM; Activity [16]: 116.4 mg/dL; Activity [17]: 158.6 mg/dL; Activity [18]: 161.4 mg/dL; Activity [19]: 145.6 mg/dL; Activity [20]: 63.2 mg/dL; fold change (FC) [23]: 15.5; Activity [21]: 47.2 U/dl; Activity [22]: 143.3 mg/dL
CC(C)N(C(C)C)S(=O)(=O)c1cc2c(c([N+](=O)[O-])c1)Nc1ccccc1O2 | 69.44 | 67.5 | 63.05 | – | – | – | – | –
COc1ccc(NS(=O)(=O)c2cc3c(c([N+](=O)[O-])c2)Nc2ccccc2O3)cc1 | 74.47 | 116.66 | 120.31 | 96.07 | 130.35 | 91.42 | 107.14 | –
O=[N+]([O-])c1cc(S(=O)(=O)Nc2ccc(Cl)cc2)cc2c1Nc1ccccc1O2 | 60.93 | 106.25 | 91.66 | 106.23 | 100.36 | 93.77 | 76.9 | –
O=[N+]([O-])c1cc(S(=O)(=O)Nc2ccccc2)cc2c1Nc1ccccc1O2 | 118.22 | 102.6 | 100 | – | – | – | – | –
CC(NS(=O)(=O)c1cc2c(c([N+](=O)[O-])c1)Nc1ccccc1O2)c1ccccc1 (stereo not drawn) | 94.28 | 78.26 | 77.74 | – | – | – | – | –
O=[N+]([O-])c1cc(S(=O)(=O)NCc2cccs2)cc2c1Nc1ccccc1O2 | 84.37 | 86.45 | 114.06 | – | – | – | – | –
O=[N+]([O-])c1cc(S(=O)(=O)Nc2ccc(Br)cc2)cc2c1Nc1ccccc1O2 | 89.58 | 95.31 | 85.42 | 111.4 | 148.35 | 137.5 | 119.64 | Activity [10]: 157.5 mg/dL; Activity [16]: 145.6 mg/dL; Activity [17]: 165.8 mg/dL; Activity [18]: 172.2 mg/dL; Activity [22]: 165.6 mg/dL
Cc1ccc(NS(=O)(=O)c2cc3c(c([N+](=O)[O-])c2)Nc2ccccc2O3)c(C)c1 | 85.42 | 93.55 | 89.88 | – | – | – | – | –
